Test results reported in ChEMBL document CHEMBL1201862, “PubChem BioAssay data set” (2004).
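48-hour exposure; five concentrations; linearly interpolated endpoints. The concentration for 50% growth inhibition is given as GI50.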 Activity calls are given as the source filed them. Cut-off read from the data, not from the text of the source: active = GI50 up to about 1.1 µM and inactive = higher.

Columns and labels:
Assay in all cases: NCI tumour cell line growth inhibition, 48 h
CAKI-1 = system: CAKI-1
CCRF-CEM = system: CCRF-CEM
DU-145 = system: DU-145
HCT-116 = system: HCT-116
HCT-15 = system: HCT-15
Hs-578T = system: Hs-578T
NCI/ADR-RES = system: NCI/ADR-RES
OVCAR-4 = system: OVCAR-4
OVCAR-5 = system: OVCAR-5
OVCAR-8 = system: OVCAR-8
RPMI-8226 = system: RPMI-8226
RXF 393 = system: RXF 393
SK-MEL-28 = system: SK-MEL-28
SK-MEL-2 = system: SK-MEL-2
SK-MEL-5 = system: SK-MEL-5
SK-OV-3 = system: SK-OV-3
SNB-19 = system: SNB-19
TK-10 = system: TK-10
U-251 = system: U-251
UACC-257 = system: UACC-257

| Compound | GI50 (CAKI-1) | GI50 (CCRF-CEM) | GI50 (DU-145) | GI50 (HCT-116) | GI50 (HCT-15) [µM] | GI50 (Hs-578T) | GI50 (NCI/ADR-RES) | GI50 (OVCAR-4) | GI50 (OVCAR-5) | GI50 (OVCAR-8) | GI50 (RPMI-8226) | GI50 (RXF 393) | GI50 (SK-MEL-28) | GI50 (SK-MEL-2) | GI50 (SK-MEL-5) | GI50 (SK-OV-3) | GI50 (SNB-19) | GI50 (TK-10) | GI50 (U-251) | GI50 (UACC-257) |
| --- | --- | --- | --- | --- | --- | --- | --- | --- | --- | --- | --- | --- | --- | --- | --- | --- | --- | --- | --- | --- |
| O=C1C=CC(=O)c2c1ccc1c3ccccc3n(CCCCCCCCCCCCn3c4ccccc4c4ccc5c(c43)C(=O)C=CC5=O)c21 | > 100 µM (inactive) | 26.3 µM (inactive) | > 100 µM (inactive) | > 100 µM (inactive) | > 100 | > 100 µM (inactive) | > 100 µM (inactive) | > 100 µM (inactive) | > 100 µM (inactive) | > 100 µM (inactive) | > 100 µM (inactive) | > 100 µM (inactive) | > 100 µM (inactive) | > 100 µM (inactive) | > 100 µM (inactive) | > 100 µM (inactive) | > 100 µM (inactive) | > 100 µM (inactive) | > 88.7 µM (inactive) | > 100 µM (inactive) |
| COC1(OC)CCCc2c1no[n+]2[O-] | > 100 µM (inactive) | > 100 µM (inactive) | > 100 µM (inactive) | > 100 µM (inactive) | > 100 | > 100 µM (inactive) | > 100 µM (inactive) | > 100 µM (inactive) | > 100 µM (inactive) | > 100 µM (inactive) | > 100 µM (inactive) | > 100 µM (inactive) | > 100 µM (inactive) | > 100 µM (inactive) | > 100 µM (inactive) | > 100 µM (inactive) | > 100 µM (inactive) | > 100 µM (inactive) | > 100 µM (inactive) | > 100 µM (inactive) |
| O=C(OC(/C=C/c1ccccc1)P1(=O)N(Cc2ccccc2)[C@@H]2CCCC[C@H]2N1Cc1ccccc1)c1ccccc1 (stereo not given in full) | 3.56 µM (inactive) | 2.52 µM (inactive) | 6.75 µM (inactive) | 2.87 µM (inactive) | 3.44 | 6.67 µM (inactive) | 2.74 µM (inactive) | 4.22 µM (inactive) | 4.43 µM (inactive) | 3.29 µM (inactive) | 2.21 µM (inactive) | 3.78 µM (inactive) | 9.82 µM (inactive) | 2.25 µM (inactive) | 3.14 µM (inactive) | 5.06 µM (inactive) | 5.43 µM (inactive) | 4.82 µM (inactive) | 3.79 µM (inactive) | 3.07 µM (inactive) |
| CC1OC(OC2C(O[C@H]3CC[C@@]4(C)C(=CC[C@H]5[C@@H]6C[C@@H]7O[C@]8(CC[C@@H](C)CO8)[C@@H](C)[C@@H]7[C@@]6(C)CC[C@@H]54)C3)OC(CO)C(O)C2O)C(O)C(O)C1O (stereo not given in full) | 1.7 µM (inactive) | 0.507 µM (active) | 1.26 µM (inactive) | 1.54 µM (inactive) | 1.96 | 1.86 µM (inactive) | 1.99 µM (inactive) | 1.22 µM (inactive) | 2.93 µM (inactive) | 1.45 µM (inactive) | 0.698 µM (active) | 1.54 µM (inactive) | 5.31 µM (inactive) | 2.63 µM (inactive) | 3.97 µM (inactive) | 3.05 µM (inactive) | 1.01 µM (active) | 1.53 µM (inactive) | 0.544 µM (active) | 1.8 µM (inactive) |
| FC(F)(F)c1ccc(C2ON=C(c3ccccc3)N2C23CC4CC(CC(C4)C2)C3)cc1 (stereo not given) | > 10 µM (inactive) | > 10 µM (inactive) | > 10 µM (inactive) | > 10 µM (inactive) | > 10 | > 10 µM (inactive) | > 10 µM (inactive) | > 10 µM (inactive) | > 10 µM (inactive) | > 10 µM (inactive) | > 10 µM (inactive) | > 10 µM (inactive) | > 10 µM (inactive) | > 10 µM (inactive) | > 10 µM (inactive) | > 10 µM (inactive) | > 10 µM (inactive) | > 10 µM (inactive) | > 10 µM (inactive) | > 10 µM (inactive) |
| Cc1[nH]n(-c2ncc(C#N)c(=O)[nH]2)c(=O)c1CCO | > 100 µM (inactive) | > 100 µM (inactive) | > 100 µM (inactive) | > 100 µM (inactive) | > 100 | > 100 µM (inactive) | > 100 µM (inactive) | > 100 µM (inactive) | > 100 µM (inactive) | > 100 µM (inactive) | > 100 µM (inactive) | > 100 µM (inactive) | > 100 µM (inactive) | > 100 µM (inactive) | > 100 µM (inactive) | > 100 µM (inactive) | > 100 µM (inactive) | > 100 µM (inactive) | > 100 µM (inactive) | > 100 µM (inactive) |
| CCN(CC)CCNc1ccc2ncn3c4cc(OC)c(OC)c(O)c4c(=O)c1c23 | 14 µM (inactive) | 0.897 µM (active) | 10.2 µM (inactive) | 0.556 µM (active) | 9.91 | 13.2 µM (inactive) | 3.94 µM (inactive) | 4.9 µM (inactive) | 21.5 µM (inactive) | 5.3 µM (inactive) | 3.03 µM (inactive) | 1.36 µM (inactive) | 14.4 µM (inactive) | 20.4 µM (inactive) | 15.5 µM (inactive) | 12.5 µM (inactive) | 7.59 µM (inactive) | 13.8 µM (inactive) | 12.9 µM (inactive) | 22.9 µM (inactive) |
